The record followed here is ChEMBL document CHEMBL1155192, “The identification of beta-hydroxy carboxylic acids as selective MMP-12 inhibitors” (Bioorg Med Chem Lett, 2009).

≈ marks a conversion by molar mass, not a printed value.

For data set [1], the target named is Macrophage metalloelastase (Homo sapiens, UniProt P39900). Nature of the data set: Inhibition of human recombinant MMP12.
Data set [2] concerns the target Collagenase 3 (Homo sapiens, UniProt P45452). Nature of the data set: Inhibition of human recombinant MMP13.
Data set [3] concerns the target T1, Interstitial collagenase (Homo sapiens, UniProt P03956).
T1 sequence (P03956 whole entry): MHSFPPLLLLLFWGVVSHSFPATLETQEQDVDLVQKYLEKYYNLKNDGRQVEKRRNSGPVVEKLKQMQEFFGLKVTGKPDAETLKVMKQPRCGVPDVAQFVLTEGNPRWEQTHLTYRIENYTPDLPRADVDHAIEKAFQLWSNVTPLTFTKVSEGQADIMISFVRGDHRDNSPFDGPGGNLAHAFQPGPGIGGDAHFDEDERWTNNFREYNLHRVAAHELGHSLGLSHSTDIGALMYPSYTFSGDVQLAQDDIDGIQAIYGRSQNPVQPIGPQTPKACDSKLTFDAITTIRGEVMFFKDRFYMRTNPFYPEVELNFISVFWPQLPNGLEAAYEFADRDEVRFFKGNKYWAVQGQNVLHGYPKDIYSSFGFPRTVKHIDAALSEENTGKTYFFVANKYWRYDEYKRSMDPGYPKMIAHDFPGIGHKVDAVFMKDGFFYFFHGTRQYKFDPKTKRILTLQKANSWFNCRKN
The data set can be described thus: Inhibition of human recombinant MMP1.

Data set [4] addresses Angiotensin-converting enzyme (Homo sapiens, UniProt P12821). The data set can be described thus: Inhibition of human recombinant ACE.
In data set [5] the target is Stromelysin-1 (Homo sapiens, UniProt P08254). Nature of the data set: Inhibition of human recombinant MMP3.
Chain of Stromelysin-1 (P08254 whole entry): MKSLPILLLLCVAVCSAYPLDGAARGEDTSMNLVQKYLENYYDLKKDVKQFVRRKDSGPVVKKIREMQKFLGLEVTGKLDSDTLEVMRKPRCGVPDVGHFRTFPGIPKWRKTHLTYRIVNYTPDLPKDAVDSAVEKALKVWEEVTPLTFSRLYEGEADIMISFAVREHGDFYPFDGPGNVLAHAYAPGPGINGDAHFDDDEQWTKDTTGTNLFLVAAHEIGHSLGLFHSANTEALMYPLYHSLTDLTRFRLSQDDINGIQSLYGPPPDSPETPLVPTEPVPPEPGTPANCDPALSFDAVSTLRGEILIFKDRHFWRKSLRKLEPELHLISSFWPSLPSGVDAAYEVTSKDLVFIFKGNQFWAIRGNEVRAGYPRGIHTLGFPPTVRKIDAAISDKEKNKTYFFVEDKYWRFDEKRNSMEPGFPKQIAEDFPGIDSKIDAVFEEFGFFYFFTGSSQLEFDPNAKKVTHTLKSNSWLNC
The target of data set [6] is 72 kDa type IV collagenase (Homo sapiens, UniProt P08253). Nature of the data set: Inhibition of human recombinant MMP2.
Chain of 72 kDa type IV collagenase (P08253 whole entry): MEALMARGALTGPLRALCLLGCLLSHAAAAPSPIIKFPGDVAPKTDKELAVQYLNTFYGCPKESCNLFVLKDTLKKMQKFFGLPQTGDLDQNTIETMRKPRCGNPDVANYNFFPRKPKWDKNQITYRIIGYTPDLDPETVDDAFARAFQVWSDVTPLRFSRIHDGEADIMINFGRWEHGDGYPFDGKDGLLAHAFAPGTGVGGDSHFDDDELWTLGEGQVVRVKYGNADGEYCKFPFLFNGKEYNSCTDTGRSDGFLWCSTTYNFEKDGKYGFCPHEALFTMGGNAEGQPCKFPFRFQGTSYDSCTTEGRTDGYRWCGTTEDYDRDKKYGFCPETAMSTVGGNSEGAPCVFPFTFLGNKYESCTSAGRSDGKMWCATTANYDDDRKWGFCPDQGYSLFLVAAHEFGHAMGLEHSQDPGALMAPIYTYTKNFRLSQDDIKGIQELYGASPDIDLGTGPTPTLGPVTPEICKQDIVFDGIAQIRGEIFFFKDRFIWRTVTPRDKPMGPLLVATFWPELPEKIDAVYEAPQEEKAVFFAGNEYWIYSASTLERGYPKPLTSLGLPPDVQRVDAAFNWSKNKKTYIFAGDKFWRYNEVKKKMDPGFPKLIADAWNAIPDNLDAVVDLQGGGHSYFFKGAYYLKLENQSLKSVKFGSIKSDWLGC
Data set [7] in a line: Solubility at pH 6.2. It counts as physicochemical. As to conditions: buffer.
In data set [8] the target is Matrix metalloproteinase-14 (Homo sapiens, UniProt P50281). The data set can be described thus: Inhibition of human recombinant MMP14.
The nature of data set [9]: Lipophilicity, log D at pH 7.4. It counts as physicochemical. As to conditions: buffer.
Data set [10] is described as follows: Solubility at pH 7.4. Particulars: buffer. It is filed as physicochemical.
In data set [11] the target is T2, Matrilysin (Homo sapiens, UniProt P09237).
T2 sequence (P09237 whole entry): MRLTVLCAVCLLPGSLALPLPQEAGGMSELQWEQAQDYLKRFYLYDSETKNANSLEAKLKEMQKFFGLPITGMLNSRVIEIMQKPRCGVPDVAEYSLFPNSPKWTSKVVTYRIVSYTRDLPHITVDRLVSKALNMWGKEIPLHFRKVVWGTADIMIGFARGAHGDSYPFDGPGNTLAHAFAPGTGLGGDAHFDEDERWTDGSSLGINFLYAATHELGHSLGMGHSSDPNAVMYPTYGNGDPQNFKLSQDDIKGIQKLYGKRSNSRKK
Nature of the data set: Inhibition of human recombinant MMP7.

Data set [12] can be described thus: Inhibition of guinea pig recombinant MMP12. Further details: species or system Cavia porcellus.
Data set [13] has as its target Disintegrin and metalloproteinase domain-containing protein 17 (Homo sapiens, UniProt P78536). Nature of the data set: Inhibition of human recombinant TACE.
Data set [14] in a line: Lipophilicity, log D at pH 6.2. It is filed as physicochemical. Particulars: buffer.
Data set [15] deals with Matrix metalloproteinase-9 (Homo sapiens, UniProt P14780). The data set can be described thus: Inhibition of human recombinant MMP9.
Chain of Matrix metalloproteinase-9 (P14780 whole entry): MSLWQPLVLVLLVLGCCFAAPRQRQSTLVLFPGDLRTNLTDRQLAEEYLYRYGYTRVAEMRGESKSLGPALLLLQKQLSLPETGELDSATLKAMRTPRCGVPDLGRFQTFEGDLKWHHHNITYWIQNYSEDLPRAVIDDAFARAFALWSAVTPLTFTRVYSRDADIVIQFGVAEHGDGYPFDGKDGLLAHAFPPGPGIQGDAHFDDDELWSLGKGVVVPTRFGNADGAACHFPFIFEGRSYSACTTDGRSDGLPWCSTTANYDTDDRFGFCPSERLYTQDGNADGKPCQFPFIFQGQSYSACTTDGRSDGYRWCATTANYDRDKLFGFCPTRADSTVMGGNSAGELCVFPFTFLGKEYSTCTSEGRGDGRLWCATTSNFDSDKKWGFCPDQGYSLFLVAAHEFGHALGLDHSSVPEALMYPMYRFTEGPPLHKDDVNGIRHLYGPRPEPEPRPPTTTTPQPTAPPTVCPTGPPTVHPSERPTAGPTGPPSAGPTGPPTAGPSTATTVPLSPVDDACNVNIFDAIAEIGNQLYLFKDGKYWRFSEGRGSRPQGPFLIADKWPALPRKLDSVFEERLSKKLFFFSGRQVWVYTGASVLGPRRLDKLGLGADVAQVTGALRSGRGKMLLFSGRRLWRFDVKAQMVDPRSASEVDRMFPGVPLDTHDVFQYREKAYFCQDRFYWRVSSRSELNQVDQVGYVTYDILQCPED

Chain of Angiotensin-converting enzyme (P12821 whole entry): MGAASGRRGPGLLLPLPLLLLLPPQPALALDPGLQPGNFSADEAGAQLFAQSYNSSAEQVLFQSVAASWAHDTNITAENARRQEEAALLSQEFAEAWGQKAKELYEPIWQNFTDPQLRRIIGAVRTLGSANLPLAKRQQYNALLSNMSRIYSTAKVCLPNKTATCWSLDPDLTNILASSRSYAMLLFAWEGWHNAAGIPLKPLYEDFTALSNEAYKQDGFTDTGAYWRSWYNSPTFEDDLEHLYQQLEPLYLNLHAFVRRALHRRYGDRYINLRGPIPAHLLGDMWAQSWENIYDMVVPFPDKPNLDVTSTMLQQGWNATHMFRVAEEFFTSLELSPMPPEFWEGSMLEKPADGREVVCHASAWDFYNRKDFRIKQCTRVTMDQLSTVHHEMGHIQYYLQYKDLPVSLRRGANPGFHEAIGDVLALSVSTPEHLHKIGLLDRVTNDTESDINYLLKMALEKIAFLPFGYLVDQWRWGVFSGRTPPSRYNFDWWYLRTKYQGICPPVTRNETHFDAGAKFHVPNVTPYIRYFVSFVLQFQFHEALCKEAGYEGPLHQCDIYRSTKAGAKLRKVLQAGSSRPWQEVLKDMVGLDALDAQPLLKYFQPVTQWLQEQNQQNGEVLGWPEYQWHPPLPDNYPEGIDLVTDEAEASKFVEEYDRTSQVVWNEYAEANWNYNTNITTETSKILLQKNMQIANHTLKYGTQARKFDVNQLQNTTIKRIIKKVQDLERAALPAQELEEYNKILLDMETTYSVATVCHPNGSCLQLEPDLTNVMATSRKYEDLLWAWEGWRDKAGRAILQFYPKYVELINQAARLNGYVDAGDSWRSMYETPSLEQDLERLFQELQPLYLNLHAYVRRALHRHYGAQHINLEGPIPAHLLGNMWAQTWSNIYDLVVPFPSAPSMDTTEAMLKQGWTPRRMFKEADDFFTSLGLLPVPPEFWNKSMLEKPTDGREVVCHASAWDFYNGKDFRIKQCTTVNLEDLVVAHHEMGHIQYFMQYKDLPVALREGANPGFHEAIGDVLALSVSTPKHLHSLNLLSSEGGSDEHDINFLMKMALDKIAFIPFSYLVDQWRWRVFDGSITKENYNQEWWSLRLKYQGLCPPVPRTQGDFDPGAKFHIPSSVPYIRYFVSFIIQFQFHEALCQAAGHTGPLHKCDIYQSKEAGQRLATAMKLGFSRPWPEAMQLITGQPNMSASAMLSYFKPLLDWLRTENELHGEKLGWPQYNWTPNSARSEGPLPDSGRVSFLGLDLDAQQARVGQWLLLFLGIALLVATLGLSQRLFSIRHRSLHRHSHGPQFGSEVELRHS
Chain of Disintegrin and metalloproteinase domain-containing protein 17 (P78536 whole entry, the tested form may be a part): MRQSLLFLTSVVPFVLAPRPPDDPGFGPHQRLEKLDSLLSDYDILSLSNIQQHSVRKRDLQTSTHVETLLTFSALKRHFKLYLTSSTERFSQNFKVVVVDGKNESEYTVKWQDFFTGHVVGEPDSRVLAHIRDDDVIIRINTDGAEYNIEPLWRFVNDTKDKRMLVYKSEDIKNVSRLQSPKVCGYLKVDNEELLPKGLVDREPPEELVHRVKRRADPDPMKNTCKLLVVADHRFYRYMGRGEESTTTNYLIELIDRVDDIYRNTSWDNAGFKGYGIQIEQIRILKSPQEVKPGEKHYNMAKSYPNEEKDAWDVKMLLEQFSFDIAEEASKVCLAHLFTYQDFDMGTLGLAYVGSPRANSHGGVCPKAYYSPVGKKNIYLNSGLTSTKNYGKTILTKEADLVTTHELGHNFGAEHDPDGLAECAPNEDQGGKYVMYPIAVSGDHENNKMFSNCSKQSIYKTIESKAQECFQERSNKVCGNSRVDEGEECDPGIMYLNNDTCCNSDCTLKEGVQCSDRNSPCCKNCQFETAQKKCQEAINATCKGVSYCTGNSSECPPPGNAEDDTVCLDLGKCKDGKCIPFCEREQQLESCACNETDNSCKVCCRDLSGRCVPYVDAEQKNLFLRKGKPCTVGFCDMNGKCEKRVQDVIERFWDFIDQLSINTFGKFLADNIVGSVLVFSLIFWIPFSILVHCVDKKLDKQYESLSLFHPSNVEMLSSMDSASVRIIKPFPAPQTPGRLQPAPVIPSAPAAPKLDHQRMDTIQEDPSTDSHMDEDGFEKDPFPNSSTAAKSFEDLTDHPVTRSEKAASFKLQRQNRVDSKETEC
Chain of Macrophage metalloelastase (P39900 whole entry): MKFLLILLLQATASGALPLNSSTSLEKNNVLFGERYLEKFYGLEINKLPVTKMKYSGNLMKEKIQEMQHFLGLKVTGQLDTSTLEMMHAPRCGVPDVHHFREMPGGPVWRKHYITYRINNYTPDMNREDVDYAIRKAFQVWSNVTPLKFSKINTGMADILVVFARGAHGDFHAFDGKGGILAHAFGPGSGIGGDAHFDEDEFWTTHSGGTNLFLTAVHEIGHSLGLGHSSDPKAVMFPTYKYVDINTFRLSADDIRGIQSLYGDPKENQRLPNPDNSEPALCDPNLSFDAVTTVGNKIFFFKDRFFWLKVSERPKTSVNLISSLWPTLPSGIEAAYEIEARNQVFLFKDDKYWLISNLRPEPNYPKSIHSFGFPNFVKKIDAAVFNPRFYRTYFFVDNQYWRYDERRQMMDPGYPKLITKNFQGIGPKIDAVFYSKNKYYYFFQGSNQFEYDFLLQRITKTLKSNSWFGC

What is called IC50 is the midpoint of a concentration-inhibition curve. Take `O=C(O)CC(O)CCc1ccc(-c2cc3ccccc3o2)cc1` (stereo unspecified): the IC50 was 0.181 µM in [1] and 50.2 µM in [2].
As for `CSc1ccc(-c2ccc(CCC(O)CC(=O)O)cc2)cc1` (stereo unspecified), the IC50 in data set [1] was 0.058 µM; in data set [3], over 98 µM; in [2], 1.13 µM.
In the same order, the values of `O=C(O)CC(O)CCc1ccc(-c2ccc3c(c2)oc2ccccc23)cc1` (stereo unspecified) are 20.1 µM, over 98 µM and 33.5 µM.
What is called solubility is how much of the substance goes into solution per volume. Read a high solubility as much dissolved substance. As a reminder, the logD is the decadic logarithm of the distribution of all forms, ionised or not, between an organic phase and buffer at a given pH. A lower logD goes with a more hydrophilic compound. Consider `O=C(O)CC(O)CCc1ccc(-c2ccccc2)cc1` (racemic), for which the IC50 in data set [4] is over 250 µM; in data set [5], over 98 µM; in data set [6] it was 4.52 µM; in data set [3] it was over 98 µM; in data set [2] it was 12 µM; in [8], 43.5 µM. Also, the IC50 in data set [11] was over 98 µM; in [12], 0.91 µM; in data set [13] it was over 98 µM; in data set [15] it was 16.5 µM. In addition, the solubility in [7] is 450 µg/mL (≈ 1660 µM); in data set [10] it was 960 µg/mL (≈ 3550 µM). The logD in [9] was determined as 0.55; in [14], 1.43.
As for `O=C(O)CSCCc1ccc(-c2ccccc2)cc1`, the IC50 was 11.8 µM in [1], over 98 µM in data set [3] and 95.2 µM in data set [2].
In the same order, the values of `N#Cc1ccc(-c2ccc(CCC(O)CC(=O)O)cc2)cc1` (stereo unspecified) are 0.086 µM, over 98 µM and 2.45 µM.
In the same order, the values of `O=C(O)CC(O)CCc1ccc(-c2ccc(OCc3ccccc3)cc2)cc1` (stereo unspecified) are 3.75 µM, over 98 µM and over 98 µM.
`N#Cc1cccc(-c2ccc(CCC(O)CC(=O)O)cc2)c1` (stereo unspecified): the IC50 in data set [1] is 3.39 µM; in data set [3], over 98 µM; in [2], 52 µM.
In the same order, the values of `O=C(O)CC(O)CCc1ccc(-c2ccc(Oc3ccccc3)cc2)cc1` (stereo unspecified) are 19.9 µM, over 98 µM and 41.9 µM.
Taken in the same sequence, the figures for `O=C(O)CC(=O)CCc1ccc(-c2ccccc2)cc1` were 7.84 µM, over 98 µM and over 98 µM.
For `O=C(O)CC(O)CCc1ccc(-c2ccncc2)cc1` (stereo unspecified), the half-maximal inhibitory concentration (IC50) in [1] worked out at 0.055 µM; in data set [2], 3.76 µM.
Consider `O=C(O)CS(=O)(=O)CCc1ccc(-c2ccccc2)cc1`, for which the IC50 in [1] is 2.49 µM; in data set [3], over 98 µM; in data set [2], 11.3 µM.
For the compound `CC(=O)c1ccc(-c2ccc(CCC(O)CC(=O)O)cc2)cc1` (stereo unspecified), the IC50 in [3] was over 98 µM; in data set [2], 0.97 µM.
As for `O=C(O)CC(O)CCc1ccc(-c2ccccc2)cc1` (stereo in doubt), the IC50 in data set [4] is over 250 µM; in data set [5] it was over 98 µM; in data set [1], 0.79 µM; in [3] it was over 98 µM; in [2], 36.8 µM; in data set [8], over 9 µM. In addition, the IC50 in [11] is over 98 µM; in data set [12], 4.67 µM; in [13] it was over 98 µM; in [15] it was 19.1 µM.
As for `CC(=O)OC(CCc1ccc(-c2ccccc2)cc1)CC(=O)O` (stereo unspecified), the half-inhibitory concentration (IC50) in [1] was 54.4 µM; in [3] it was over 98 µM; in data set [2], over 98 µM.
Consider `O=C(O)C[S+]([O-])CCc1ccc(-c2ccccc2)cc1` (stereo unspecified), for which the IC50 in [1] was 4.5 µM; in [3], over 98 µM; in data set [2], 95.9 µM.
In the same order, the values of `COC(CCc1ccc(-c2ccccc2)cc1)CC(=O)O` (stereo unspecified) are 3.53 µM, over 98 µM and over 98 µM.
For `O=C(O)CC(O)CCc1ccc(-c2ccccc2)cc1` (single isomer, unassigned), the IC50 was over 250 µM in [4]; over 98 µM in [5]; 0.34 µM in [1]; over 98 µM in data set [3]; 9.99 µM in data set [2]; 36.6 µM in [8]. Further, the IC50 in data set [11] is over 98 µM; in data set [12], 1.14 µM; in [13], over 98 µM; in data set [15], 10.5 µM.
